In PubChem BioAssay (NCI):
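All cell lines were grown in 96-well plates and treated with compound for 48 hours. TGI marks complete inhibition of growth.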

Columns and labels:
Experiment in all cases: growth of human tumour cells (NCI), 48 h
[1] = test system: CCRF-CEM leukemia
[2] = test system: MDA-MB-435
[3] = test system: NCI-H23 lung
[4] = test system: SK-MEL-2 melanoma
[5] = test system: TK-10 renal
[6] = test system: HOP-92 NSCLC
[7] = test system: U251 CNS
[8] = test system: CAKI-1 renal
[9] = test system: COLO 205 colon
[10] = test system: MOLT-4 leukemia
[11] = test system: MCF7 breast
[12] = test system: SNB-75 CNS
[13] = test system: SW-620 colon
[14] = test system: BT-549 breast
[15] = test system: 786-0 renal
[16] = test system: MDA-MB-231 breast
[17] = test system: SN12C renal
[18] = test system: PC-3 prostate
[19] = test system: NCI/ADR-RES ovarian
[20] = test system: ACHN renal
[21] = test system: MDA-N
[22] = test system: OVCAR-5 ovarian
[23] = test system: K-562 leukemia
[24] = test system: RPMI-8226 leukemia
[25] = test system: IGROV1 ovarian
[26] = test system: NCI-H226 lung
[27] = test system: OVCAR-8 ovarian
[28] = test system: KM12 colon
[29] = test system: NCI-H522 lung
[30] = test system: EKVX NSCLC
[31] = test system: SF-268 CNS
[32] = test system: UACC-62 melanoma
[33] = test system: OVCAR-4 ovarian
[34] = test system: HCC-2998 colon
[35] = test system: LOX IMVI melanoma
[36] = test system: SK-MEL-5 melanoma
[37] = test system: UACC-257 melanoma
[38] = test system: A549 NSCLC
[39] = test system: SK-MEL-28 melanoma
[40] = test system: SF-539 CNS
[41] = test system: T-47D breast
[42] = test system: SNB-19 CNS
[43] = test system: SF-295 CNS
[44] = test system: RXF 393 renal
[45] = test system: MALME-3M melanoma
[46] = test system: OVCAR-3 ovarian
[47] = test system: UO-31 renal
[48] = test system: M14 melanoma
[49] = test system: SK-OV-3 ovarian
[50] = test system: HCT-15 colon
[51] = test system: HOP-62 NSCLC
[52] = test system: HT29 colon
[53] = test system: HL-60(TB) leukemia
[54] = test system: HCT-116 colon
[55] = test system: DU-145 prostate
[56] = test system: HS 578T breast
[57] = test system: NCI-H460 lung
[58] = test system: A498 renal

For CCOC(=O)C(NC(=O)c1ccccc1)(Nc1cc(C)on1)C(F)(F)F (centres undefined), the TGI [1] was > 100 µM, the TGI [2] was > 100 µM and the TGI [3] was > 100 µM. For the same compound, the TGI [4] was > 100 µM, the TGI [5] was > 100 µM and the TGI [6] was > 100 µM. For the same compound, the TGI [7] was > 100 µM, the TGI [8] was > 100 µM and the TGI [9] was > 100 µM. The TGI [10] was > 100 µM, the TGI [11] was > 100 µM and the TGI [12] was > 100 µM. For the same compound, the TGI [13] was > 100 µM, the TGI [14] was > 100 µM and the TGI [15] was > 100 µM. The TGI [16] was 56.2 µM, the TGI [17] was > 100 µM and the TGI [18] was > 100 µM. For the same compound, the TGI [19] was > 100 µM, the TGI [20] was > 100 µM and the TGI [21] was > 100 µM. The TGI [22] was > 100 µM, the TGI [23] was > 100 µM and the TGI [24] was > 100 µM. The TGI [25] was > 100 µM, the TGI [26] was > 100 µM and the TGI [27] was > 100 µM. For the same compound, the TGI [28] was > 100 µM, the TGI [29] was > 100 µM and the TGI [30] was > 100 µM. The TGI [31] was > 100 µM, the TGI [32] was > 100 µM and the TGI [33] was > 100 µM. For the same compound, the TGI [34] was > 100 µM, the TGI [35] was > 100 µM and the TGI [36] was > 100 µM. For the same compound, the TGI [37] was > 100 µM, the TGI [38] was > 100 µM and the TGI [39] was > 100 µM. The TGI [40] was > 100 µM, the TGI [41] was > 100 µM and the TGI [42] was > 100 µM. The TGI [43] was > 100 µM, the TGI [44] was > 100 µM and the TGI [45] was > 100 µM. For the same compound, the TGI [46] was > 100 µM, the TGI [47] was > 100 µM and the TGI [48] was > 100 µM. For the same compound, the TGI [49] was > 100 µM, the TGI [50] was > 100 µM and the TGI [51] was > 100 µM. For the same compound, the TGI [52] was > 100 µM, the TGI [53] was > 100 µM and the TGI [54] was > 100 µM. For the same compound, the TGI [55] was > 100 µM and the TGI [56] was > 100 µM.
With Cc1ccc2ccc(O)cc2c1 the TGI [1] was 61.8 µM, the TGI [2] was 46.8 µM and the TGI [3] was > 100 µM. For the same compound, the TGI [4] was > 100 µM, the TGI [5] was > 100 µM and the TGI [6] was 80.9 µM. The TGI [7] was 48.8 µM, the TGI [8] was > 100 µM and the TGI [9] was > 100 µM. The TGI [10] was 55.9 µM, the TGI [11] was > 100 µM and the TGI [12] was > 100 µM. The TGI [13] was > 100 µM, the TGI [14] was 99.4 µM and the TGI [15] was > 100 µM. For the same compound, the TGI [16] was > 100 µM, the TGI [17] was > 100 µM and the TGI [18] was 52.9 µM. The TGI [19] was 60.4 µM, the TGI [20] was > 100 µM and the TGI [21] was 42.6 µM. The TGI [22] was > 100 µM, the TGI [23] was 47.1 µM and the TGI [24] was 66.4 µM. For the same compound, the TGI [25] was 57.3 µM, the TGI [26] was > 100 µM and the TGI [27] was 60.9 µM. The TGI [28] was > 100 µM, the TGI [29] was 42.4 µM and the TGI [30] was > 100 µM. For the same compound, the TGI [31] was > 100 µM, the TGI [32] was > 100 µM and the TGI [33] was 52 µM. For the same compound, the TGI [57] was > 100 µM, the TGI [34] was 46.8 µM and the TGI [35] was > 100 µM. The TGI [36] was > 100 µM, the TGI [37] was > 100 µM and the TGI [38] was > 100 µM. For the same compound, the TGI [39] was > 100 µM, the TGI [40] was > 100 µM and the TGI [41] was > 100 µM. For the same compound, the TGI [42] was > 100 µM, the TGI [58] was > 100 µM and the TGI [43] was > 100 µM. For the same compound, the TGI [44] was > 100 µM, the TGI [45] was > 100 µM and the TGI [46] was 28.7 µM. For the same compound, the TGI [47] was 67.1 µM, the TGI [48] was > 100 µM and the TGI [49] was > 100 µM. The TGI [50] was > 100 µM, the TGI [51] was > 100 µM and the TGI [52] was > 100 µM. The TGI [53] was 52.8 µM, the TGI [54] was > 100 µM and the TGI [55] was > 100 µM. For the same compound, the TGI [56] was > 100 µM.
